# Data taken from patent publication US20230255954A1, “INTERLEUKIN 33 (IL-33) INHIBITION FOR TREATMENT OF CANCER, FIBROSIS AND INFLAMMATION” (The General Hospital Corporation, priority 2020, published 2023).
# How the values were obtained:
# Format in all cases: cell-based, mouse
# [1] = tested on: Il33 expression induced by Poly (I:C) in Pam212 cells; experiment: Il33 RNA by qPCR in Poly (I:C)-treated Pam212 cells
# Experimental: Pam212 cells were grown at 37° C. in DMEM (Thermo Fisher Scientific, Waltham, Mass., catalog no. 11995065) supplemented with 10% fetal bovine serum (Thermo Fisher Scientific, catalog no. 26140079), 1× penicillin-streptomycin-glutamine (Thermo Fisher Scientific, catalog no. 10378016), 1×MEM non-essential amino acids solution (Thermo Fisher Scientific, catalog no. 11140050), 1×HEPES (Thermo Fisher Scientific, catalog no. 15630080) and 0.1% 2-Mercaptoethanol (Thermo Fisher Scientific, catalog no. 21985023). […]
# Mouse dorsal skin samples were homogenized and lysed in RLT lysis solution (QIAGEN, catalog no. 79216)/0.1% MeOH using Mini-BeadBeater-8 (BioSpec Products, Inc., Bartlesville, Okla.). Total RNA was extracted using an RNeasy micro kit and quantified using NanoDrop ND-1100 (NanoDrop Technologies, Wilmington, Del.). cDNA samples were synthesized from 1 μg of total RNA using Invitrogen SuperScripts III Reverse Transcriptase (Thermo Fisher Scientific, catalog no. 18080085). Expression levels of all cDNA samples were determined with LightCycler 480 system (Roche Molecular Systems Inc., Pleasanton, Calif.) using TaqMan Universal Master Mix II (Thermo Fisher Scientific, catalog no. 44-400-40). […]
# [2] = tested on: IRF3 nuclear localization; experiment: IRF3 nuclear immunofluorescence staining in poly (I:C) treated Pam212 cells; conditions: compared to only Poly (I:C) treated group
# Experimental: For immunofluorescence staining, Pam212 cells were permeated with 1×PBS supplemented with 0.2% Triton X-100 for 5 min. Slides were washed three times for three minutes each in 1×PBS with 0.1% TWEEN20. Slides were blocked with 1% bovine serum albumin and 5% goat serum for 1 hour. The slides were stained overnight at 4° C. with IRF3 antibody. The following day, slides were washed as above and incubated for two hours at room temperature with secondary antibodies conjugated to fluorochromes. Next, slides were incubated with 1:2000 DAPI (Thermo Fisher Scientific, catalog no. D3571) for five minutes at room temperature, then washed as above. Slides were mounted with Prolong Gold Antifade Reagent (Thermo Fisher Scientific, catalog no. P36930).
# Next, to investigate the mechanism by which pitavastatin can block IL-33 expression, we first confirmed p-IRF3 expression level because IRF3 is a transcription factor of IL-33 expression. […] However, pitavastatin treatment with Poly (I:C) to Pam212 cells, level of p-IRF3 was decreased (FIG. 11A). […] After IRF3 are phosphorylated by upstream, p-IRF3 can translocate to nucleus as a transcription factor.
# [3] = tested on: IRF3 nuclear translocation; experiment: Nuclear fractionation assay, IRF3 in poly (I:C) treated Pam212 cells
# Experimental: Pam212 cell line was transfected with poly (I:C) using Lipofectamine 2000 according to the manufacturer's instructions. After 8 hours, cells were lysed using Nuclear Extraction Kit (Novus biologicals, Littleton, Colo., catalog no. NBP2-29447). Briefly, cells were washed with 1×PBS supplemented with PMSF (Novus biologicals, catalog no. KC-407). Cells were centrifuged for 5 min at 1,000 rpm. Cell pellets were resuspended in 1× cold hypotonic buffer (Novus biologicals, catalog no. KC-401) and incubated on ice for 15 min. After adding 10 μL of the 10% detergent solution (Novus biologicals, catalog no. KC-403), cell lysates were centrifuged 10 min at 14,000 rpm. The supernatants were kept as cytoplasmic fraction and the cell pellets were resuspended in 100 μL nuclear lysis buffer (Novus biologicals, catalog no. KC-402). Lysates from the pellets were sonicated for few seconds and incubated for 10 min at 4° C. Then, lysates were centrifuged at 14,000 rpm for 10 min. The supernatants were kept as nuclear fraction.
# Next, to investigate the mechanism by which pitavastatin can block IL-33 expression, we first confirmed p-IRF3 expression level because IRF3 is a transcription factor of IL-33 expression. […] However, pitavastatin treatment with Poly (I:C) to Pam212 cells, level of p-IRF3 was decreased (FIG. 11A). […]
smiles,measurement,setting,value
O=C(O)C[C@H](O)C[C@H](O)/C=C/c1c(C2CC2)nc2ccccc2c1-c1ccc(F)cc1 [pitavastatin],Il33 RNA level,[1],decreased
same,IRF3 nuclear localization,[2],blocked
same,IRF3 localization by nuclear fractionation,[3],remains IRF3 in cytoplasm
